Measured values: PMC4298654, “In vivo formation of N-acyl-fumonisin B1” (Mycotoxin Research, 2014)
Read-outs that look alike come from different tables or passages of the source.

Assays:
[1] = system: rat liver and kidney; experiment: Histological examination of rat liver and kidney; format: in vivo; conditions: ip, 5 days; FB1 0.5, 1.0, 2.0 mg/kg or HFB1 1.0 mg/kg body weight per day; n = 2/group
Text: The study protocol was approved by the Institutional Animal Care and Use Committee, Richard B. Russell Agricultural Research Center, Athens, GA. Male Sprague–Dawley rats (Harlan Industries, Indianapolis, IN, USA), 7 weeks of age at receipt, were individually housed in stainless steel, wire mesh cages in an environmentally controlled room having a 12-h light/dark cycle. Food (2019 Global Rodent Diet, Teklad, Madison, WI, USA) and fresh tap water were provided ad libitum. After a 1 week acclimation period, the animals were randomly assigned to five groups (n = 2/group) having mean weights of 215 to 216 g (weight range of all animals, 211 to 220 g). For five consecutive days, they were observed, weighed, and given an intraperitoneal injection (ip) of 0 (vehicle), 0.5, 1.0, or 2.0 mg/kg body weight FB1 (provided by R. Eppley, US FDA), 1.0 mg/kg body weight HFB1 (positive control) (Voss et al. [2009]), or vehicle (0.9 % physiological saline). […] In order to compare the effects of FB1 and HFB1, dosages will be expressed as molar concentrations and, on this basis, the high dose of FB1 is roughly equivalent to that of the positive control dose of HFB1. […] The kidney and liver specimens were fixed in 10 % neutral buffered formalin, processed, and microscopically evaluated without knowledge of the animal’s identity or treatment group. […]

[2] = system: sphingolipid metabolism; experiment: Sphingolipid levels in rat kidney and liver after ip FB1 or HFB1; format: in vivo; conditions: 5 days; for levels of sphingoid bases and 1-phosphates (total sphingosine, total sphinganine) in tissues compared to vehicle-treated controls: ip
Text: (§1) The study protocol was approved by the Institutional Animal Care and Use Committee, Richard B. Russell Agricultural Research Center, Athens, GA. Male Sprague–Dawley rats (Harlan Industries, Indianapolis, IN, USA), 7 weeks of age at receipt, were individually housed in stainless steel, wire mesh cages in an environmentally controlled room having a 12-h light/dark cycle. Food (2019 Global Rodent Diet, Teklad, Madison, WI, USA) and fresh tap water were provided ad libitum. After a 1 week acclimation period, the animals were randomly assigned to five groups (n = 2/group) having mean weights of 215 to 216 g (weight range of all animals, 211 to 220 g). For five consecutive days, they were observed, weighed, and given an intraperitoneal injection (ip) of 0 (vehicle), 0.5, 1.0, or 2.0 mg/kg body weight FB1 (provided by R. Eppley, US FDA), 1.0 mg/kg body weight HFB1 (positive control) (Voss et al. [2009]), or vehicle (0.9 % physiological saline). These doses corresponded to 0.69, 1.38, and 2.77 μmol FB1/kg body weight and 2.47 μmol/kg body weight HFB1 per day. In order to compare the effects of FB1 and HFB1, dosages will be expressed as molar concentrations and, on this basis, the high dose of FB1 is roughly equivalent to that of the positive control dose of HFB1. Dosing solutions were sterile filtered and administered at a volume rate of 10 ml/kg body weight. The animals were fasted overnight prior to administration of the final dose. The rats were euthanized (CO2 inhalation and exsanguination) 60 to 90 min following the final dose administration and examined by necropsy. The kidney and liver specimens were fixed in 10 % neutral buffered formalin, processed, and microscopically evaluated without knowledge of the animal’s identity or treatment group. Three representative liver and kidney specimens (100 mg each) were also collected, immediately frozen, and stored (−80 °C) until processed, at which time the tissues were thawed and homogenized in distilled/deionized water (1 ml water/100 mg tissue). The homogenates were lyophilized before they were shipped by overnight courier for the analysis of fumonisin metabolites and sphingolipids.
(§2) Lyophilized liver and kidney tissues (100 mg wet weight equivalents) were processed for the quantification of FB1, HFB1, NAFB1, NAHFB1, and sphingolipids. Preparation of the tissue samples was performed according to a previously published method (Harrer et al. [2013]). For the quantification of FB1 and HFB1, a d6-labeled derivative of FB1 (FB1-d6) was used as the internal standard. Synthetic derivatives with a heptadecanoic fatty acid (C17:0) residue were used as internal standards for the quantification of N-acyl-fumonisins and ceramides (N-C17:0-FB1, N-C17:0-HFB1, and N-C17:0-ceramide). The sphingoid bases and their phosphate derivatives were quantified using synthetic derivatives with a C17-acyl-backbone: sphingosine (C17:1), sphingosine-1-phosphate (C17:1), sphinganine (C17:0), sphinganine-1-phosphate (C17:0) as internal standards. The standards were dissolved in methanol:chloroform (2:1, v/v) and then mixed with the tissue samples. The samples spiked with internal standard were kept at room temperature for 30 min before being processed further. The internal standard-spiked samples were first extracted with ethyl acetate, isopropanol, and water (60:30:10, v/v/v) and a second time using methanol, chloroform, and water (60:30:10, v/v/v). The extracts were combined, the solvents removed by evaporation, and the dried samples stored at−80 °C till analyzed.

[3] = In vivo formation of NAFB1 and NAHFB1 in rat kidney and liver (HPLC-ESI-MS/MS); conditions: kidney; FB1 2.77 or HFB1 2.47 μmol/kg body weight per day ip, 5 days
Text: as §1, §2
(§3) For the analysis, the samples were reconstituted in a mixture of water, methanol, and tetrahydrofurane (60:24:16, v/v/v). The NAFB1 and NAHFB1 derivatives having the following fatty acyl chain lengths were quantified by HPLC-MS/MS: C16:0, C18:0, C20:0, C22:0, C24:0, C26:0. Furthermore, we also quantified the unsaturated derivatives C24:1 and C26:1. The results are given as the sum of all N-acyl derivatives of FB1 or HFB1. […]

[4] = set-up: method as in Martinez-Larranaga et al. 1999; conditions: single dose, ref Martinez-Larranaga et al. 1999, cited from earlier work
[5] = rats fed with fumonisin-contaminated diet; ref Riley and Voss 2006; cited from earlier work
[6] = set-up: method as in Bulder et al. 2012; conditions: ref Bulder et al. 2012; cited from earlier work
[7] = Tissue FB1 and HFB1 concentrations in rat kidney and liver (HPLC-ESI-MS/MS); format: in vivo; conditions: HFB1 2.47 μmol/kg body weight per day ip, 5 days
Text: as §1, §2, §3

[8] = kidney, dose High: 2.77 μmol FB1/kg or 2.47 μmol HFB1/kg body weight per day ip
[9] = kidney, dose Low: 0.69 μmol FB1/kg body weight per day ip
[10] = kidney, dose Mid: 1.38 μmol FB1/kg body weight per day ip
[11] = liver, dose High: 2.77 μmol FB1/kg or 2.47 μmol HFB1/kg body weight per day ip
[12] = liver, dose Low: 0.69 μmol FB1/kg body weight per day ip
[13] = liver, dose Mid: 1.38 μmol FB1/kg body weight per day ip

With `CCCC[C@@H](C)[C@@H](OC(=O)C[C@@H](CC(=O)O)C(=O)O)[C@H](C[C@@H](C)C[C@H](O)CCCC[C@@H](O)C[C@H](O)[C@H](C)N)OC(=O)C[C@@H](CC(=O)O)C(=O)O` [FB1, Fumonisin B1] the “microscopic appearance of kidney and liver” value [1] was “Mild to moderate apoptotic, mitotic, and other effects consistent with fumonisin exposure”, the tissue ceramide concentrations ([2]; kidney and liver, FB1 ip) was “decreased in both tissues” and the “levels of sphingoid bases and 1-phosphates (total sphingosine, total sphinganine) in tissues compared to vehicle-treated controls” value ([2]; kidney and liver) was “increased amounts”. For the same compound, the Sa/So ratio [2, 8] was 3.8 ± 1.8, the “sphinganine (Sa)” value [2, 8] was 207 ± 79.9 nmol/g and the “sphinganine-1-phosphate (Sa1P)” value [2, 8] was 19.9 ± 1.0 nmol/g. The “sphingosine (So)” value [2, 8] was 56 ± 6.2 nmol/g, the “sphingosine-1-phospate (So1P)” value [2, 8] was 21.6 ± 4.5 nmol/g and the Sa/So ratio [2, 9] was 4.1 ± 1.0. The “sphinganine (Sa)” value [2, 9] was 252 ± 15.6 nmol/g, the “sphinganine-1-phosphate (Sa1P)” value [2, 9] was 16.7 ± 0.5 nmol/g and the “sphingosine (So)” value [2, 9] was 63 ± 11.5 nmol/g. The “sphingosine-1-phospate (So1P)” value [2, 9] was 21.4 ± 4.1 nmol/g, the Sa/So ratio [2, 10] was 2.5 ± 0.2 and the “sphinganine (Sa)” value [2, 10] was 146 ± 11.3 nmol/g. For the same compound, the “sphinganine-1-phosphate (Sa1P)” value [2, 10] was 11.3 ± 1.5 nmol/g, the “sphingosine (So)” value [2, 10] was 59 ± 8.3 nmol/g and the “sphingosine-1-phospate (So1P)” value [2, 10] was 20.8 ± 0.7 nmol/g. The Sa/So ratio [2, 11] was 5.9 ± 0.0, the “sphinganine (Sa)” value [2, 11] was 81 ± 17.1 nmol/g and the “sphinganine-1-phosphate (Sa1P)” value [2, 11] was 0.9 ± 0.5 nmol/g. For the same compound, the “sphingosine (So)” value [2, 11] was 14 ± 2.9 nmol/g, the “sphingosine-1-phospate (So1P)” value [2, 11] was 1.0 ± 0.3 nmol/g and the Sa/So ratio [2, 12] was 4.2 ± 0.9. The “sphinganine (Sa)” value [2, 12] was 68 ± 27.6 nmol/g, the “sphinganine-1-phosphate (Sa1P)” value [2, 12] was 0.2 ± 0.2 nmol/g and the “sphingosine (So)” value [2, 12] was 16 ± 3.3 nmol/g. For the same compound, the “sphingosine-1-phospate (So1P)” value [2, 12] was 0.4 ± 0.2 nmol/g, the Sa/So ratio [2, 13] was 5.5 ± 1.2 and the “sphinganine (Sa)” value [2, 13] was 88 ± 15.1 nmol/g. For the same compound, the “sphinganine-1-phosphate (Sa1P)” value [2, 13] was 0.4 ± 0.1 nmol/g, the “sphingosine (So)” value [2, 13] was 17 ± 6.4 nmol/g and the “sphingosine-1-phospate (So1P)” value [2, 13] was 0.8 ± 0.0 nmol/g. For the same compound, the “metabolites of the dosed mycotoxin found in the kidney” value [3] was “less than 0.5 nmol/g”, the AUCtissue/AUCplasma ratio ([4]; kidney) was 29.9 and the AUCtissue/AUCplasma ratio ([4]; liver) was 2.03. The “FB1 concentration (ng/g wet weight) in the kidney relative to the liver” value [5] was “approximately tenfold higher” and the “absorption after oral exposure” value [6] was < 5 % of dose.
For `CCCC[C@@H](C)[C@@H](O)[C@@H](O)C[C@@H](C)C[C@H](O)CCCC[C@@H](O)C[C@H](O)[C@H](C)N` [HFB1, Hydrolyzed fumonisin B1, reference compound], the “microscopic appearance of kidney and liver” value [1] was “could not be differentiated from that of tissues from the vehicle control group”, the “levels of sphingoid bases and 1-phosphates (total sphingosine, total sphinganine) in tissues compared to vehicle-treated controls” value ([2]; kidney and liver) was “did not cause any significant changes” and the Sa/So ratio [2, 8] was 0.3 ± 0.0. The “sphinganine (Sa)” value [2, 8] was 3 ± 0.7 nmol/g, the “sphinganine-1-phosphate (Sa1P)” value [2, 8] was 0.6 ± 0.4 nmol/g and the “sphingosine (So)” value [2, 8] was 9 ± 2.8 nmol/g. For the same compound, the “sphingosine-1-phospate (So1P)” value [2, 8] was 0.4 ± 0.1 nmol/g, the Sa/So ratio [2, 11] was 0.5 ± 0.4 and the “sphinganine (Sa)” value [2, 11] was 2 ± 1 nmol/g. For the same compound, the “sphinganine-1-phosphate (Sa1P)” value [2, 11] was 0.1 ± 0.1 nmol/g, the “sphingosine (So)” value [2, 11] was 3 ± 0.2 nmol/g and the “sphingosine-1-phospate (So1P)” value [2, 11] was 0.2 ± 0.0 nmol/g. For the same compound, the “metabolites of the dosed mycotoxin found in the kidney” value [3] was “less than 0.5 nmol/g”, the “HFB1 molar concentration in the liver relative to the kidney” value [7] was “about sixfold higher” and the “HFB1 molar concentration in tissue” value ([7]; kidney) was 0.27 nmol/g. For the same compound, the “unmetabolized HFB1 accumulated in tissue, % of the total dose (TD)” value ([7]; kidney) was under 0.1 % TD, the “total amount of HFB1 species in tissue, % of the total dose (TD)” value ([7]; kidney, HFB1 plus N-acyl metabolites) was 0.03 % TD and the “HFB1 molar concentration in tissue” value ([7]; liver) was 1.78 nmol/g. For the same compound, the “unmetabolized HFB1 accumulated in tissue, % of the total dose (TD)” value ([7]; liver) was 0.7 % TD.
